Assay results as given in patent US20090226398A1, “ANTI-VIRAL COMPOUNDS, COMPOSITIONS, AND METHODS OF USE” (Genelabs Technologies, Inc., priority 2008, published 2009).

Test system: HCV replication
Test: Replicon Assay (Huh-lucubineo-ET cells, luciferase readout)
Assay type: cell-based
Details: Hepatitis C virus; ET (Huh-lucubineo-ET) HCV replicon cell line; luciferase activity 48-72 hours after compound addition; 6 dilutions
Procedure: A cell line, ET (Huh-lucubineo-ET) was used for screening of compounds of the present invention for inhibition of HCV replication. The ET cell line was stably transfected with RNA transcripts harboring a I389luc-ubi-neo/NS3-3′/ET; replicon with firefly luciferase-ubiquitin-neomycin phosphotransferase fusion protein and EMCV-IRES driven NS3-5B polyprotein containing the cell culture adaptive mutations (E1202G; T1280I; K1846T) (Krieger at al, 2001 and unpublished). The ET cells were grown in DMEM, supplemented with 10% fetal calf serum, 2 mM Glutamine, Penicillin (100 IU/mL)/Streptomycin (100 μg/mL), 1× nonessential amino acids, and 250 μg/mL G418 (“Geneticin”). They were all available through Life Technologies (Bethesda, Md.). The cells were plated at 0.5−1.0×10^4 cells/well in the 96 well plates and incubated for 24 hrs before adding the test compounds. The compounds were then added to the cells to achieve a final concentration of 5 or 50 μM. Luciferase activity was measured 48-72 hours later by adding a lysis buffer and the substrate (Catalog number Glo-lysis buffer E2661 and Bright-Glo luciferase system E2620 Promega, Madison, Wis.). Cells should not be too confluent during the assay. Percent inhibition of replication was plotted relative to no compound control. For EC50 (effective concentration at which 50% of the maximum inhibition is observed) determinations, 6 dilutions of each compound were used. Compounds were typically diluted 3 fold to span a concentration range of 250 fold. EC50 and similarly TC50 values were calculated by fitting % inhibition at each concentration to the following equation:
% inhibition=100%/[(EC50/[I])^b+1]
where b is Hill's coefficient.

Fc1cccc(-c2ccc(Cn3cc4nc(-c5cccc(F)c5F)nc-4cn3)nn2)c1 [Compound 222, 2-(2,3-Difluoro-phenyl)-5-[6-(3-fluoro-phenyl)-pyridazin-3-ylmethyl]-5H-imidazo[4,5-d]pyridazine]
EC50: ≥ 50000 nM

CCCCOc1ccc(-c2ccc(Cn3cc4nc(-c5cccc(F)c5F)nc-4cn3)nn2)cc1 [Compound 223, 5-[6-(4-Butoxy-phenyl)-pyridazin-3-ylmethyl]-2-(2,3-difluoro-phenyl)-5H-imidazo[4,5-d]pyridazine]
EC50: 49000 nM

COc1ccc(-c2ccc(Cn3cc4nc(-c5cccc(F)c5F)nc-4cn3)c(C)n2)c(C(F)(F)F)c1 [Compound 224, 2-(2,3-Difluoro-phenyl)-5-[6-(4-methoxy-2-trifluoromethyl-phenyl)-2-methyl-pyridin-3-ylmethyl]-5H-imidazo[4,5-d]pyridazine]
EC50: 281 nM

Fc1cccc(-c2nc3cnn(Cc4ccc(-c5ccc(C(F)(F)F)cc5)cc4)cc-3n2)c1F [Compound 225, 2-(2,3-Difluoro-phenyl)-5-(4′-trifluoromethyl-biphenyl-4-ylmethyl)-5H-imidazo[4,5-d]pyridazine]
EC50: 13700 nM

CCCOc1ccc(-c2ccc(Cn3cc4nc(-c5cccc(F)c5F)nc-4cn3)nn2)c(C(F)(F)F)c1 [Compound 226, 2-(2,3-Difluoro-phenyl)-5-[6-(4-propoxy-2-trifluoromethyl-phenyl)-pyridazin-3-ylmethyl]-5H-imidazo[4,5-d]pyridazine]
EC50: 4 nM

Cc1ccc(-c2ccc(Cn3cc4nc(-c5cccc(F)c5F)nc-4cn3)nn2)c(Cl)c1 [Compound 227, 5-[6-(2-Chloro-4-methyl-phenyl)-pyridazin-3-ylmethyl]-2-(2,3-difluoro-phenyl)-5H-imidazo[4,5-d]pyridazine]
EC50: 97 nM

COc1ccc(-c2ccc(Cn3cc4nc(-c5cccc(F)c5F)nc-4cn3)nn2)c(Cl)c1 [Compound 228, 5-[6-(2-Chloro-4-methoxy-phenyl)-pyridazin-3-ylmethyl]-2-(2,3-difluoro-phenyl)-5H-imidazo[4,5-d]pyridazine]
EC50: 112 nM

Fc1cccc(-c2nc3cnn(Cc4ccc(-c5ccc(OC(F)(F)F)cc5)cc4)cc-3n2)c1F [Compound 229, 2-(2,3-Difluoro-phenyl)-5-(4′-trifluoromethoxy-biphenyl-4-ylmethyl)-5H-imidazo[4,5-d]pyridazine]
EC50: 8380 nM

Fc1cc(C(F)(F)F)ccc1-c1ccc(Cn2cc3nc(-c4cccc(F)c4F)nc-3cn2)cc1 [Compound 230, 2-(2,3-Difluoro-phenyl)-5-(2′-fluoro-4′-trifluoromethyl-biphenyl-4-ylmethyl)-5H-imidazo[4,5-d]pyridazine]
EC50: 3140 nM

CC(F)(F)COc1ccc(-c2ccc(Cn3cc4nc(-c5cccc(F)c5F)nc-4cn3)nn2)c(C(F)(F)F)c1 [Compound 231, 2-(2,3-Difluoro-phenyl)-5-{6-[4-(2,2-difluoro-propoxy)-2-trifluoromethyl-phenyl]-pyridazin-3-ylmethyl}-5H-imidazo[4,5-d]pyridazine]
EC50: 164 nM

CCCOc1ccc(-c2ccc(Cn3cc4nc(-c5cccc(F)c5F)nc-4cn3)c(N)n2)c(C(F)(F)F)c1 [Compound 232, 3-[2-(2,3-Difluoro-phenyl)-imidazo[4,5-d]pyridazin-5-ylmethyl]-6-(4-propoxy-2-trifluoromethyl-phenyl)-pyridin-2-ylamine]
EC50: 18 nM

CN(C)Cc1ccc(-c2ccc(Cn3cc4nc(-c5cccc(F)c5F)nc-4cn3)nn2)cc1 [Compound 233, (4-{6-[2-(2,3-Difluoro-phenyl)-imidazo[4,5-d]pyridazin-5-ylmethyl]-pyridazin-3-yl}-benzyl)-dimethyl-amine]
EC50: ≥ 50000 nM

CCCOc1ccc(-c2ccc(Cn3cc4nc(-c5cccc(F)c5F)nc-4cn3)cn2)c(C)c1 [Compound 234, 2-(2,3-Difluoro-phenyl)-5-[6-(2-methyl-4-propoxy-phenyl)-pyridin-3-ylmethyl]-5H-imidazo[4,5-d]pyridazine]
EC50: 1210 nM

COc1ccc(-c2ccc(Cn3cc4nc(-c5cccc(F)c5F)nc-4cn3)cn2)c(C(F)(F)F)c1 [Compound 235, 2-(2,3-Difluoro-phenyl)-5-[6-(4-methoxy-2-trifluoromethyl-phenyl)-pyridin-3-ylmethyl]-5H-imidazo[4,5-d]pyridazine]
EC50: 10 nM

Fc1cccc(-c2nc3cnn(Cc4ccc(-c5ccc(Cl)cc5C(F)(F)F)nc4)cc-3n2)c1F [Compound 236, 5-[6-(4-Chloro-2-trifluoromethyl-phenyl)-pyridin-3-ylmethyl]-2-(2,3-difluoro-phenyl)-5H-imidazo[4,5-d]pyridazine]
EC50: 15 nM

Fc1cccc(-c2nc3cnn(Cc4ccc(-c5ccc(C(F)(F)F)cc5Cl)nc4)cc-3n2)c1F [Compound 237, 5-[6-(2-Chloro-4-trifluoromethyl-phenyl)-pyridin-3-ylmethyl]-2-(2,3-difluoro-phenyl)-5H-imidazo[4,5-d]pyridazine]
EC50: 119 nM

COc1ccc(-c2ccc(Cn3cc4nc(-c5cccc(F)c5F)nc-4cn3)nn2)c(C(F)(F)F)c1 [Compound 238, 2-(2,3-Difluoro-phenyl)-5-[6-(4-methoxy-2-trifluoromethyl-phenyl)-pyridazin-3-ylmethyl]-5H-imidazo[4,5-d]pyridazine]
EC50: 6 nM

Cc1ccc(-c2ccc(Cn3cc4nc(-c5cccc(F)c5F)nc-4cn3)nc2)c(C(F)(F)F)c1 [Compound 239, 2-(2,3-Difluoro-phenyl)-5-[5-(4-methyl-2-trifluoromethyl-phenyl)-pyridin-2-ylmethyl]-5H-imidazo[4,5-d]pyridazine]
EC50: 63 nM

Cc1ccc(-c2ccc(Cn3cc4nc(-c5cccc(F)c5F)nc-4cn3)c(N)n2)c(C(F)(F)F)c1 [Compound 240, 3-[2-(2,3-Difluoro-phenyl)-imidazo[4,5-d]pyridazin-5-ylmethyl]-6-(4-methyl-2-trifluoromethyl-phenyl)-pyridin-2-ylamine]
EC50: 44 nM

COc1ccc(-c2ccc(Cn3cc4nc(-c5cccc(F)c5F)nc-4cn3)cc2)c(C(F)(F)F)c1 [Compound 241, 2-(2,3-Difluoro-phenyl)-5-(4′-methoxy-2′-trifluoromethyl-biphenyl-4-ylmethyl)-5H-imidazo[4,5-d]pyridazine]
EC50: 21 nM

COc1ccc(-c2ccc(Cn3cc4nc(-c5cccc(F)c5F)nc-4cn3)c(N)n2)c(C(F)(F)F)c1 [Compound 242, 3-[2-(2,3-Difluoro-phenyl)-imidazo[4,5-d]pyridazin-5-ylmethyl]-6-(4-methoxy-2-trifluoromethyl-phenyl)-pyridin-2-ylamine]
EC50: 44 nM

COc1ccc(-c2ccc(Cn3cc4nc(-c5cccc(F)c5F)nc-4cn3)nc2)c(C(F)(F)F)c1 [Compound 243, 2-(2,3-Difluoro-phenyl)-5-[5-(4-methoxy-2-trifluoromethyl-phenyl)-pyridin-2-ylmethyl]-5H-imidazo[4,5-d]pyridazine]
EC50: 17 nM

Fc1cccc(-c2nc3cnn(Cc4ccc(-c5ccc(C(F)(F)F)cc5C(F)(F)F)cc4)cc-3n2)c1F [Compound 244, 5-(2′,4′-Bis-trifluoromethyl-biphenyl-4-ylmethyl)-2-(2,3-difluoro-phenyl)-5H-imidazo[4,5-d]pyridazine]
EC50: 9 nM

CCCOc1ccc(-c2ccc(Cn3cc4nc(-c5cccc(F)c5F)nc-4cn3)cn2)cc1 [Compound 245, 2-(2,3-Difluoro-phenyl)-5-[6-(4-propoxy-phenyl)-pyridin-3-ylmethyl]-5H-imidazo[4,5-d]pyridazine]
EC50: 8350 nM

Fc1cccc(-c2nc3cnn(Cc4ccc(-c5ccc(C(F)(F)F)cc5)cn4)cc-3n2)c1F [Compound 246, 2-(2,3-Difluoro-phenyl)-5-[5-(4-trifluoromethyl-phenyl)-pyridin-2-ylmethyl]-5H-imidazo[4,5-d]pyridazine]
EC50: ≥ 50000 nM

CCCOc1ccc(-c2ccc(Cn3cc4nc(-c5cccc(F)c5F)nc-4cn3)nc2)cc1 [Compound 247, 2-(2,3-Difluoro-phenyl)-5-[5-(4-propoxy-phenyl)-pyridin-2-ylmethyl]-5H-imidazo[4,5-d]pyridazine]
EC50: 5080 nM

Fc1cccc(-c2nc3cnn(Cc4ccc(-c5ccc(OC(F)(F)F)cc5)nc4)cc-3n2)c1F [Compound 249, 2-(2,3-Difluoro-phenyl)-5-[6-(4-trifluoromethoxy-phenyl)-pyridin-3-ylmethyl]-5H-imidazo[4,5-d]pyridazine]
EC50: ≥ 50000 nM

Fc1cccc(-c2nc3cnn(Cc4ccc(-c5ccccc5C(F)(F)F)nc4)cc-3n2)c1F [Compound 250, 2-(2,3-Difluoro-phenyl)-5-[6-(2-trifluoromethyl-phenyl)-pyridin-3-ylmethyl]-5H-imidazo[4,5-d]pyridazine]
EC50: ≥ 50000 nM

Fc1cc(C(F)(F)F)ccc1-c1ccc(Cn2cc3nc(-c4cccc(F)c4F)nc-3cn2)cn1 [Compound 251, 2-(2,3-Difluoro-phenyl)-5-[6-(2-fluoro-4-trifluoromethyl-phenyl)-pyridin-3-ylmethyl]-5H-imidazo[4,5-d]pyridazine]
EC50: ≥ 50000 nM
